Results on 8 molecules are retold here after PMC6320914 (Pharmaceutics, 2018).

As usually defined, the IC50 is the concentration at which inhibition is half-maximal.

In series [1] the target is T1, GnRH-RI expressed on human prostate cancer (Homo sapiens, UniProt P30968).
T1 construct: Tissue samples of human prostate cancer cells were obtained from a patient at the time of initial surgical treatment; from tissue; host or cells: human prostate cancer surgical specimen, cell membrane homogenate
T1 sequence (P30968 1-328): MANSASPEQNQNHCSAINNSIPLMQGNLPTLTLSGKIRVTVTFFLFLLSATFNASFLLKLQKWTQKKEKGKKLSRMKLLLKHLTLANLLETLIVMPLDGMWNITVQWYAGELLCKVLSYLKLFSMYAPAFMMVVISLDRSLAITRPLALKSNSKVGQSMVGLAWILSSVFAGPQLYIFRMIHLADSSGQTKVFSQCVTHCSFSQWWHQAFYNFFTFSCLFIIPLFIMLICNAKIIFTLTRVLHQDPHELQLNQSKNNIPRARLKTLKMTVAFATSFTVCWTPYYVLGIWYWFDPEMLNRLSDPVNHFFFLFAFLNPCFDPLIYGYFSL
Details: method as in PMID 10647698, PMID 20859992. The conditions noted are these: concentrations up to 1 µM; cited from earlier work.

A further series is described as follows: 90% human plasma. The conditions noted are these: 37 °C, up to 24 h.
A short description of series [2]: rat liver lysosomal homogenate in 0.2 M NH4OAc buffer (pH 5). The conditions noted are these: 37 °C, up to 24 h.
The target in series [3] is T1, GnRH-RI expressed on human prostate cancer. Briefly: Radioligand competition with [125I]-triptorelin, human prostate cancer membranes. In kind it is binding. The conditions noted are these: membrane fractions of human prostate cancer specimens, Figure 5. The procedure:
Ligand competition assays with radiolabeled triptorelin were performed to evaluate the binding affinity of K2 and 10 to GnRH-RI expressed on human pituitary and human prostate cancer cells as reported earlier. Tissue samples of human prostate cancer cells were obtained from a patient at the time of initial surgical treatment and normal human pituitary tissue (anterior lobe) derived by autopsy. All subjects gave their informed consent for inclusion before they participated in the study. The collection and the use of these specimens for our studies were conducted in accordance with the Declaration of Helsinki and approved by the local Institutional Ethics Committee (UD REC/IEC 4831-2017). To study the binding affinity of the compounds, cell membrane homogenates were prepared as previously described. Apart from that, triptorelin was radioiodinated using the chloramine-T method, followed by purification by RP-HPLC [34, 40, 41, 44]. To determine the binding affinities of the nonradio-labeled GnRH-III bioconjugates to GnRH-RI, the displacement of [^125I]-GnRH-I-[^6D-Trp] was studied by an in vitro ligand competition assay. […] To determine the protein concentration by the method of Bradford, a Bio-Rad protein assay kit (Bio-Rad Laboratories, USA) was used. The LIGAND-PC computerized curve-fitting program of Munson and Rodbard was used to determine the receptor binding characteristics and IC50 values.
On the technique in general: In a radioligand displacement assay an active substance lowers the binding of a labelled ligand.

Series [4] deals with HT-29 human colon cancer cells. Format: cell-based. The conditions noted are these: 24 h treatment in serum-free medium (0.068–150 µM), then 48 h in complete medium; alamarBlue fluorescence; mean ± SE, performed twice, four parallels. As for the experimental part: (§1) Dulbecco’s Modified Eagle Medium (DMEM, Lonza, Basel, Switzerland), supplemented with 10% (v/v) Fetal Bovine Serum (FBS, Lonza), L-glutamine (2 mM, Lonza), non-essential amino acids (NEAA, Sigma-Aldrich Kft), sodium pyruvate (1 mM, Lonza) and Penicillin-Streptomycin (Lonza) was used to culture MCF-7 human breast adenocarcinoma cells (ATCC:HTB-22). HT-29 human colon adenocarcinoma cells (ATCC:HTB-38) were maintained in RPMI-1640 (Lonza), supplied with 10% FBS, L-glutamine and Penicillin-Streptomycin. MDA-MB-231 breast adenocarcinoma cells were cultured in DMEM (Lonza), supplemented with 10% FBS and Penicillin-Streptomycin. Cells were maintained in plastic culture dishes at 37 °C with a humidified atmosphere containing 5% CO2/95% air.
(§2) 5 × 10^3 cells per well were seeded to 96-well plates (Sarstedt, Nümbrecht, Germany), in a complete cell medium. After 24 h, the cells were treated with bioconjugates in a serum-free medium (concentration range 0.068–150 µM, control wells were treated with a serum-free medium). On the next day, cells were washed two times with a serum-free medium and incubated in a complete medium for 48 h. The cell viability was determined using alamarBlue reagent® (ThermoFisher Scientific) by following the manufacturer’s instructions. A Synergy H4 multi-mode microplate reader (BioTek, Winooski, VT, USA) was used for fluorescence detection (λEx = 570 and at λEM = 620 nm). Experiments were performed twice, using four parallels per concentration. Cell viabilities (and IC50 values) were calculated with Origin Pro8 (OriginLab Corp., Northampton, MA, USA.) using a nonlinear regression (sigmoidal dose–response).
A general note: Alamar Blue is a resazurin reagent that responds to reducing activity.

The test system of series [5] is MCF-7 human breast cancer cells. Format: cell-based. The conditions noted are these: 24 h treatment in serum-free medium (0.068–150 µM), then 48 h in complete medium; alamarBlue fluorescence; mean ± SE, performed twice, four parallels. The procedure:
as §1, §2

Series [6] relates to MDA-MB-231 human breast cancer cells. Format: cell-based. The conditions noted are these: 24 h treatment in serum-free medium (0.068–150 µM), then 48 h in complete medium; alamarBlue fluorescence; mean ± SE, performed twice, four parallels. As for the experimental part:
as §1, §2

“Also recorded” adds a separate entry of the source. Square brackets hold non-standard residues; d marks the D form. Peptide text beside a SMILES is read from it. * marks the point of attachment. Daunorubicin(13-NOCH2CO) = COc1cccc2c1C(=O)c1c(O)c3c(c(O)c1C2=O)C[C@@](O)(C(C)=NOCC(=O)*)C[C@@H]3O[C@H]1C[C@H](N)[C@H](O)[C@H](C)O1; pGlu = O=C1CC[C@@H](C(=O)O)N1; Butyryl = CCCC(=O)*

Regarding somatostatin-14, the displacement of triptorelin result in series [1] was “not able to displace triptorelin”.

With bombesin, the displacement of triptorelin entry in series [1] is given as “not able to displace triptorelin”.

As for <E-D-Tic-K(Bu)HDWK(Dau=Aoa)PG-NH2, the not cleaved entry in “90% human plasma” is reported as “stable for at least 24 h”. Further, in series [2], the cleaved bond result is recorded as “Lys(Bu)4-His5; also recorded: His5-Asp6; also recorded: Asp6-Trp7; also recorded: Trp7-Lys(Dau=Aoa)8; also recorded: Lys(Dau=Aoa)8-Pro9; also recorded: Pro9-Gly10” and the fragment found entry was “<E-D-Tic-K(Bu)HDWK(Dau=Aoa)-OH; also recorded: <E-D-Tic-K(Bu)HD-OH; also recorded: <E-D-Tic-K(Bu)H-OH; also recorded: H-K(Dau=Aoa)P-OH; also recorded: H-Lys(Dau=Aoa)-OH, 1 h”.

Consider human growth hormone, for which the “displacement of [125I]-GnRH-I-[6D-Trp] binding” value in series [3] was “did not displace the radioligand”.

somatostatin [reference compound]: the “displacement of [125I]-GnRH-I-[6D-Trp] binding” value in series [3] was “did not displace the radioligand”.

Regarding epidermal growth factor, the “displacement of [125I]-GnRH-I-[6D-Trp] binding” value in series [3] is on record as “did not displace the radioligand”.

Turning to `CCCC(=O)NCCCC[C@H](NC(=O)[C@H](Cc1c[nH]c2ccccc12)NC(=O)[C@H](Cc1c[nH]cn1)NC(=O)[C@@H]1CCC(=O)N1)C(=O)N[C@@H](Cc1c[nH]cn1)C(=O)N[C@@H](CC(=O)O)C(=O)N[C@@H](Cc1c[nH]c2ccccc12)C(=O)N[C@@H](CCCCNC(=O)CON=C(C)[C@]1(O)Cc2c(O)c3c(c(O)c2[C@@H](O[C@H]2C[C@H](N)[C@H](O)[C@H](C)O2)C1)C(=O)c1c(OC)cccc1C3=O)C(=O)N1CCC[C@H]1C(=O)NCC` [compound 14] ([pGlu]HWK(Butyryl)HDWK(Daunorubicin(13-NOCH2CO))P-NHEt), the IC50 in series [4] was 17.84 ± 0.08 µM; in series [5] it was 2.23 ± 0.4 µM; in series [6], 12.4 ± 2.3 µM.

As for <EHWK(Bu)HDWK(Dau=Aoa)PG-NH2, the not cleaved result in “90% human plasma” was “stable for at least 24 h”. The cleaved bond entry in series [2] is listed as “Pro9-Gly10; also recorded: His2-Trp3; also recorded: Trp3-Lys(Bu)4; also recorded: Lys(Bu)4-His5, first_seen, 5 min; also recorded: His5-Asp6; also recorded: Asp6-Trp7; also recorded: Trp7-Lys(Dau=Aoa)8; also recorded: Lys(Dau=Aoa)8-Pro9”.
